Results on 16 molecules are retold here after PubChem BioAssay (NCI).

Several values for one entry are separate records, joined by “and”; a condition that tells them apart may be missing. Equal entries are not always repeated.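 Each compound was tested at five concentrations against cells in 96-well plates for 48 hours. The concentration for 50% growth inhibition is given as GI50. TGI: total growth inhibition.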 Bounds are passed on as bounds.

Common to all, as to test: inhibition of tumour cell growth, NCI panel, 48 h
The test system of assay [1] is OVCAR-3 ovarian.
Assay [2] relates to M14 melanoma.
The test system of assay [3] is OVCAR-8 ovarian.
The test system of assay [4] is DMS 273 small cell lung.
Assay [5] relates to CCRF-CEM leukemia.
The subject of assay [6] is HOP-18 NSCLC.
The subject of assay [7] is DMS 114 small cell lung.
For assay [8], the system named is KM20L2 colon.
For assay [9], the system named is DLD-1 colon.
For assay [10], the system named is BT-549 breast.

`O=C(O)C1=C(C(=O)Nc2ccc(NC(=O)C3=C(C(=O)O)C4C=CC3C4)cc2)C2C=CC1C2`: the TGI in assay [1], in [2], in assay [3], in assay [4], in [5] and in assay [6] was greater than 100 µM throughout. Besides, the TGI in assay [7], in assay [8] and in [9] was greater than 100 µM in each case.
Consider `O=[N+]([O-])c1cccc(C2=NOC3C4CCC(C4)C23)c1` (stereo not given), for which the TGI in assay [1], in [2], in assay [3], in assay [4], in assay [6] and in assay [7] was greater than 100 µM throughout. The TGI in assay [9] was greater than 100 µM.
`Cc1ccccc1-n1c(C)nc(-c2ccccc2)cc1=O`: the TGI in [1], in [2], in [3], in assay [4], in assay [5] and in [6] was greater than 100 µM each time. The TGI in assay [7], in assay [8] and in assay [9] was greater than 100 µM each time.
Take `N#CC1=C(Cl)NC(Cl)=C(C#N)C1c1c(Cl)cccc1Cl`: the TGI in assay [1] is 64.4 µM; in [2] it was greater than 100 µM; in [3], 80 µM; in assay [4], 34.5 µM; in assay [5], 54.5 µM; in assay [6], 91.5 µM. Also, the TGI turned out to be 28.3 µM in assay [7], 76.9 µM in [8] and 46.9 µM in assay [9].
With `O=C(O)c1ccccc1NC(=O)C1CCCCC1`, the TGI in assay [1], in [2], in [3], in assay [4], in [5] and in [7] was greater than 100 µM in each case. For the same molecule, the TGI in assay [8] and in assay [9] was greater than 100 µM in each case.
In the case of `CCC(Oc1ccc(OC)c2ccccc(=O)c12)C(=O)O` (stereo not given), the TGI in assay [1], in assay [2], in assay [3], in [4], in assay [5] and in assay [7] was greater than 100 µM each time.
On to `COC(=O)C1=CC2OC1(C)CCC2=O` (stereo not given), for which the TGI in assay [1], in assay [2], in [3], in assay [4], in assay [5] and in assay [8] was greater than 100 µM each time. The molecule further displayed a TGI in assay [9] greater than 100 µM.
With `[Cl][Cd][Cl]`, the GI50 was 3.26 µM and 12.1 µM and 6.94 µM in [1]; 43.4 µM and 62.3 µM in assay [2]; 119 µM in assay [3]; 15.1 µM in [4]; 20.7 µM and 9.08 µM in assay [5]; greater than 42.3 µM in assay [6]. Also, the GI50 in assay [7] is 25.8 µM; in assay [9], greater than 58.6 µM. Also, the TGI was 8 µM and 25.9 µM and 15.3 µM in assay [1]; > 76.9 µM and 161 µM in [2]; 272 µM in assay [3]; 31.2 µM in [4]; 2.07 µM and 17.6 µM in assay [10]; 56.7 µM and 89.7 µM in assay [5]. In addition, the TGI is greater than 62.1 µM in [6] and greater than 55 µM in assay [7].
Regarding `Cc1cccc2nc3cccc(C(=O)NCCN(C)C)c3nc12`, the TGI in assay [1] was 6.45 µM; in assay [2], 2.36 µM; in assay [3], 15.8 µM; in assay [4] it was 4.17 µM; in [5], greater than 100 µM; in assay [6], 84 µM. The TGI in assay [7] is 3.13 µM; in assay [9] it was 21.8 µM.
Turning to `COc1ccc2c(c1OC)C(=O)c1cnccc1C2=O`, the TGI in assay [1], in assay [2], in assay [3], in [4], in assay [5] and in assay [6] was greater than 100 µM in each case. Besides, the TGI in assay [7], in assay [8] and in assay [9] was greater than 100 µM in each case.
`CCC(=O)N/N=C(\C=C\c1cccc(O)c1)c1sc(Nc2ccc(C)cc2[N+](=O)[O-])nc1C`: the TGI in [1], in assay [2], in assay [3], in assay [4], in [5] and in assay [6] was greater than 100 µM throughout. For the same molecule, the TGI in assay [7], in [8] and in assay [9] was greater than 100 µM each time.
With `CC(C)c1cc(OCC(O)CO)cc(C(C)C)c1` (stereo not given), the TGI in assay [1], in [2], in assay [3], in assay [4], in assay [5] and in assay [6] was greater than 100 µM throughout. In addition, the TGI in assay [7], in [8] and in assay [9] was greater than 100 µM throughout.
On to `Cc1cc(Cl)ccc1C1OC(=O)c2c1ccc1ccccc21` (stereo not given), for which the TGI in assay [1], in assay [2], in assay [3], in [4], in assay [5] and in assay [8] was greater than 100 µM in each case. The molecule further had a TGI in assay [9] greater than 100 µM.
Take `O=C1NC(=O)C2C1N(Cc1ccccc1)C(=O)N2Cc1ccccc1` (stereo not given): the TGI in assay [1], in assay [2], in assay [5], in [7], in assay [8] and in [9] was greater than 100 µM throughout.
As for `O=C1C=CC(CC(=O)c2ccc3ccccc3c2)O1` (stereo not given), the TGI was 41.6 µM in assay [1]; 93.9 µM in assay [2]; 32.8 µM in assay [3]; 45.3 µM in [4]; 63.4 µM in assay [5]; greater than 100 µM in assay [6]. Further, the results for the TGI in assay [8] and in assay [9] were 34.7 µM and 80.6 µM, respectively.
As to `Nc1n[nH]c(CCc2nc(N)n[nH]2)n1`, the TGI in assay [1], in assay [2], in assay [3], in assay [4], in assay [5] and in [7] was greater than 100 µM throughout. The TGI in assay [8] and in assay [9] was greater than 100 µM each time.
